Data reported in US20080139564A1, “SUBSTITUTED PHENYL PROPYL AMINES AS HISTAMINE H3 RECEPTOR AND SEROTONIN TRANSPORTER MODULATORS” (priority 2006, published 2008).
pKi: −log10 of the molar value.

Assays:
[1] = biological target: T1, Rat SERT (Rattus norvegicus, UniProt P31652); experiment: Rat brain SERT binding ([3H]-Citalopram displacement, rat brain membranes); conditions: 0.6 nM [3H]-Citalopram, 60 min at 25° C.
T1 construct: A rat brain without cerebellum (Zivic Laboratories, Inc.—Pittsburgh, Pa.) was homogenized; tissue Zivic Laboratories, Inc; host or cells: rat brain without cerebellum
T1 sequence (P31652 whole entry): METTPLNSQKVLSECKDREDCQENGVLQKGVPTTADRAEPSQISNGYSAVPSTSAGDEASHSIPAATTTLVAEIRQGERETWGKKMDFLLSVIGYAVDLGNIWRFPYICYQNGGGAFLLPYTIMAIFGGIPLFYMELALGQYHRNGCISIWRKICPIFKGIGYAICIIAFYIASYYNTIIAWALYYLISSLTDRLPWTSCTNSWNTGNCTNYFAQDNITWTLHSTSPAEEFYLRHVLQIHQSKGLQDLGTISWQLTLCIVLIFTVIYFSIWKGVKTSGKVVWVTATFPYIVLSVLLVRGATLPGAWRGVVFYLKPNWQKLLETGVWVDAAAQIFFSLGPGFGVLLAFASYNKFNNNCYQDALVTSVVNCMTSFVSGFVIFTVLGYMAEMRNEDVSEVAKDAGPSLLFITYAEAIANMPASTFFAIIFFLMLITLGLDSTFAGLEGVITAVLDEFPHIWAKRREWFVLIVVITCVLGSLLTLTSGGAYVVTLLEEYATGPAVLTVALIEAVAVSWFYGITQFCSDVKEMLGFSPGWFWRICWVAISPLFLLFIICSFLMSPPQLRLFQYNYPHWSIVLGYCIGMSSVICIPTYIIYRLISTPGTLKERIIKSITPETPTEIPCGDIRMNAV
Description: A rat brain without cerebellum (Zivic Laboratories, Inc.—Pittsburgh, Pa.) was homogenized in a 52.6 mM Tris pH 8/126.4 mM NaCl/5.26 mM KCl mixture and centrifuged at 1,000 rpm for 5 min. The supernatant was removed and re-centrifuged at 15,000 rpm for 30 min. Pellets were re-homogenized in a 52.6 mM Tris pH8/126.4 mM NaCl/5.26 mM KCl mixture. Membranes were incubated with 0.6 nM [^3H]-Citalopram plus/minus test compounds for 60 min at 25° C. and harvested by rapid filtration over GF/C glass fiber filters (pretreated with 0.3% polyethylenimine) followed by four washes with ice-cold buffer. Nonspecific binding was defined in the presence of 100 μM fluoxetine.

[2] = biological target: T2, human SERT (Homo sapiens, UniProt P31645); experiment: Human SERT binding (3H-citalopram displacement, HEK293 membranes); conditions: 3H-citalopram 3.1 nM, rt for 1 h
T2 construct: expressed in transfected cells; host or cells: HEK293
T2 sequence (P31645 whole entry): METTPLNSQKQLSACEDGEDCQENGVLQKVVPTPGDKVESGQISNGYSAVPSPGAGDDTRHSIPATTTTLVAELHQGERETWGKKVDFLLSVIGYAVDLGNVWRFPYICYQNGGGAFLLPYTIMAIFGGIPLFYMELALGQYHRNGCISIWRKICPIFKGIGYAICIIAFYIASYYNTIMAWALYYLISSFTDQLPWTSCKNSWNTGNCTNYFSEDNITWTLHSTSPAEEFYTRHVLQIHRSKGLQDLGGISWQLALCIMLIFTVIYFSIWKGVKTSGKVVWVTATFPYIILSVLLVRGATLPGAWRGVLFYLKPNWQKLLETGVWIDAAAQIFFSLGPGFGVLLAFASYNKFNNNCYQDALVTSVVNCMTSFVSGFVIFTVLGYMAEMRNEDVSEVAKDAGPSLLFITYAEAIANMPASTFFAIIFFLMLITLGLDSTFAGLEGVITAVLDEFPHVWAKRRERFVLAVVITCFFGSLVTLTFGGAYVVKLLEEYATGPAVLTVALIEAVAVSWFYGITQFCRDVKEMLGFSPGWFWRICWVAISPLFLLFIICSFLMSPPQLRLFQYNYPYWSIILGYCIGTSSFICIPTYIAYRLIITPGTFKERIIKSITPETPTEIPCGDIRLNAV
Description: Homogenized HEK293 (Human Embryonic Kidney) membranes expressing the human SERT were incubated with ^3H-citalopram (SERT) at rt for 1 h in 50 mM Tris, 120 mM NaCl, 5 mM KCl (pH 7.4). Nonspecific binding was determined in the presence of 10 μM fluoxetine for the SERT. The membranes were washed and the radioactivity was counted as above. Calculations for Ki at the SERT were based on a Kd value for ^3H-citalopram and a ligand concentration of 3.1 nM.

[3] = biological target: T3, human H3 receptor (Homo sapiens, UniProt Q9Y5N1); experiment: H3 receptor binding (N-[3H]-α-methylhistamine displacement, SK-N-MC cell membranes); conditions: 0.8 nM N-[3H]-α-methylhistamine, 60 min at 25° C.
T3 construct: expressed in transfected cells
T3 sequence (Q9Y5N1 whole entry): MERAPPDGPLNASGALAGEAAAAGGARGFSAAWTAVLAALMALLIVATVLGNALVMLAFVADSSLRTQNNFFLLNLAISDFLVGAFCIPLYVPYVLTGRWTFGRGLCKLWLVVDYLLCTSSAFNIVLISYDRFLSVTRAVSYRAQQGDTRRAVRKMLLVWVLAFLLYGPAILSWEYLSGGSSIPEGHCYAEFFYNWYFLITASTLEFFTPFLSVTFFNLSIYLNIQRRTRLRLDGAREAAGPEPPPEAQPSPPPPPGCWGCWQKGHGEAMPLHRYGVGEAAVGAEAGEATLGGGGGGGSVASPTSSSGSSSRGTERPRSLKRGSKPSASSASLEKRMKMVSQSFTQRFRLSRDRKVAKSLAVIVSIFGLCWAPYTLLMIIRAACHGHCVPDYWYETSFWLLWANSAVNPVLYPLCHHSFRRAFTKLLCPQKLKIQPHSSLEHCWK
Description: Binding of compounds to the cloned human H3 receptor, stably expressed in SK-N-MC cells, was performed (Lovenberg, T. W. et al. J. Pharmacol. Exp. Ther. 2000, 293, 771-778). Briefly, cell pellets from SK-N-MC cells expressing the human H3 receptor were homogenized in 50 mM Tris-HCl/5 mM EDTA and re-centrifuged at 30,000 g for 30 min. Pellets were re-homogenized in 50 mM Tris/5 mM EDTA (pH 7.4). Membranes were incubated with 0.8 nM N—[^3H]-α-methylhistamine plus/minus test compounds for 60 min at 25° C. and harvested by rapid filtration over GF/C glass fiber filters (pretreated with 0.3% polyethylenimine) followed by four washes with ice-cold buffer. Nonspecific binding was defined in the presence of 10 μM histamine.

Molecule `CN(C)CCC(Oc1ccc(Cl)c(Cl)c1)c1ccc(OCCCN2CCCCC2)cc1` (single isomer, unassigned; (+)) [Example 75, (+)-{3-(3,4-Dichloro-phenoxy)-3-[4-(3-piperidin-1-yl-propoxy)phenyl]-propyl}-dimethyl-amine] has a pKi [1] of 8.01.
Work on `CN(C)CCC(Oc1ccc(Cl)c(Cl)c1)c1ccc(OCCCN2CCCCC2)cc1` (single isomer, unassigned; (-)) [Example 74, (−){3-(3,4-Dichloro-phenoxy)-3-[4-(3-piperidin-1-yl-propoxy)phenyl]-propyl}-dimethyl-amine] yielded a pKi [1] of 7.96.
In the case of `CN(C)CCC(Oc1ccccc1)c1cccc(OCCCN2CCCCC2)c1` (centres unmarked) [Example 3, Dimethyl-[3-phenoxy-3-[3-(3-piperidin-1-yl-propoxy)-phenyl]-propyl]-amine], the pKi [2] was 6.70, the pKi [1] was 7.80 and the pKi [3] was 8.52.
In the case of `CSc1ccc(OC(CCN(C)C)c2ccc(OCCCN3CCCCC3)cc2)cc1` (centres unmarked) [Example 4, Dimethyl-{3-(4-methylsulfanyl-phenoxy)-3-[4-(3-piperidin-1-yl-propoxy)-phenyl]-propyl}-amine], the pKi [2] was 8.00, the pKi [1] was 8.89 and the pKi [3] was 9.05.
Molecule `CN(C)CCC(Oc1ccc(C#N)cc1)c1ccc(OCCCN2CCCCC2)cc1` (centres unmarked) [Example 5, 4-{3-Dimethylamino-1-[4-(3-piperidin-1-yl-propoxy)-phenyl]-propoxy}-benzonitrile] has a pKi [2] of 6.80, a pKi [1] of 8.10 and a pKi [3] of 9.70.
With `Cc1ccc(OC(CCN(C)C)c2ccc(OCCCN3CCCCC3)cc2)cc1` (centres unmarked) [Example 6, Dimethyl-{3-[4-(3-piperidin-1-yl-propoxy)-phenyl]-3-p-tolyloxy-propyl}-amine] the pKi [2] was 7.80, the pKi [1] was 8.82 and the pKi [3] was 9.22.
`COc1ccc(OC(CCN(C)C)c2ccc(OCCCN3CCCCC3)cc2)cc1` (centres unmarked) [Example 7, {3-(4-Methoxy-phenoxy)-3-[4-(3-piperidin-1-yl-propoxy)-phenyl]-propyl}-dimethyl-amine] gave a pKi [2] of 7.22, a pKi [1] of 8.70 and a pKi [3] of 9.05.
For `CN(C)CCC(Oc1ccc(Cl)cc1)c1ccc(OCCCN2CCCCC2)cc1` (centres unmarked) [Example 8, {3-(4-Chloro-phenoxy)-3-[4-(3-piperidin-1-yl-propoxy)-phenyl]-propyl}-dimethyl-amine], the pKi [2] was 7.80, the pKi [1] was 8.70 and the pKi [3] was 8.77.
`CN(C)CCC(Oc1ccc(Cl)c(Cl)c1)c1ccc(OCCCN2CCCCC2)cc1` (centres unmarked) [Example 9, {3-(3,4-Dichloro-phenoxy)-3-[4-(3-piperidin-1-yl-propoxy)-phenyl]-propyl}-dimethyl-amine] gave a pKi [1] of 8.22.
Work on `CN(C)CCC(Oc1ccc(F)cc1)c1ccc(OCCCN2CCCCC2)cc1` (centres unmarked) [Example 10, {3-(4-Fluoro-phenoxy)-3-[4-(3-piperidin-1-yl-propoxy)-phenyl]-propyl}-dimethyl-amine] yielded a pKi [2] of 7.34, a pKi [1] of 8.89 and a pKi [3] of 9.00.
`CN(C)CCC(Oc1cccc(Cl)c1)c1ccc(OCCCN2CCCCC2)cc1` (centres unmarked) [Example 14, {3-(3-Chloro-phenoxy)-3-[4-(3-piperidin-1-yl-propoxy)-phenyl]-propyl}-dimethyl-amine] showed a pKi [2] of 8.15 and a pKi [3] of 8.77.
Molecule `CN(C)CCC(Oc1ccc(Cl)cc1)c1ccc(C#CCCN2CCCCC2)cc1` (centres unmarked) [Example 25, {3-(4-Chloro-phenoxy)-3-[4-(4-piperidin-1-yl-but-1-ynyl)-phenyl]-propyl}-dimethyl-amine] has a pKi [1] of 7.41 and a pKi [3] of 7.68.
`COc1ccc(OC(CCN(C)C)c2ccc(C#CCCN3CCSCC3)cc2)cc1` (centres unmarked) [Example 26, {3-(4-Methoxy-phenoxy)-3-[4-(4-thiomorpholin-4-yl-but-1-ynyl)phenyl]-propyl}-dimethyl-amine] showed a pKi [1] of 7.37 and a pKi [3] of 7.96.
`CN(C)CCC(Oc1ccc(C(F)(F)F)cc1)c1ccc(C#CCCN2CCOCC2)cc1` (centres unmarked) [Example 27, Dimethyl-[3-[4-(4-morpholin-4-yl-but-1-ynyl)-phenyl]-3-(4-trifluoromethyl-phenoxy)-propyl]-amine] gave a pKi [1] of 7.10 and a pKi [3] of 7.22.
Work on `CN(C)CCC(Oc1ccc(C(F)(F)F)cc1)c1ccc(C#CCCN2CCSCC2)cc1` (centres unmarked) [Example 28, Dimethyl-[3-[4-(4-thiomorpholin-4-yl-but-1-ynyl)-phenyl]-3-(4-trifluoromethyl-phenoxy)-propyl]-amine] yielded a pKi [1] of 6.77 and a pKi [3] of 6.91.
With `CC(C)N1CCN(CCC#Cc2ccc(C(CCN(C)C)Oc3ccc(C(F)(F)F)cc3)cc2)CC1` (centres unmarked) [Example 29, [3-{4-[4-(4-Isopropyl-piperazin-1-yl)-but-1-ynyl]-phenyl}-3-(4-trifluoromethyl-phenoxy)-propyl]-dimethyl-amine] the pKi [1] was 7.41 and the pKi [3] was 6.59.
In the case of `CN(C)CCC(Oc1ccc(Cl)c(Cl)c1)c1ccc(C#CCCN2CCCCC2)cc1` (centres unmarked) [Example 30, {3-(3,4-Dichloro-phenoxy)-3-[4-(4-piperidin-1-yl-but-1-ynyl)phenyl]-propyl}-dimethyl-amine], the pKi [1] was 7.68 and the pKi [3] was 7.62.
`CC(C)N1CCN(C(=O)c2ccc(OC(CCN(C)C)c3ccc(C(F)(F)F)cc3)cc2)CC1` (centres unmarked) [Example 46, {4-[3-Dimethylamino-1-(4-trifluoromethyl-phenyl)-propoxy]-phenyl}-(4-isopropyl-piperazin-1-yl)-methanone] gave a pKi [1] of 7.24 and a pKi [3] of 9.00.
For `CCCCN1CCN(C(=O)c2ccc(C(CCN(C)C)Oc3ccc(C(F)(F)F)cc3)cc2)CC1` (centres unmarked) [Example 48, (4-Butyl-piperazin-1-yl)-{4-[3-dimethylamino-1-(4-trifluoromethylphenoxy)-propyl]-phenyl}-methanone], the pKi [1] was 7.07 and the pKi [3] was 7.77.
`CCCCN1CCN(Cc2ccc(C(CCN(C)C)Oc3ccc(C(F)(F)F)cc3)cc2)CC1` (centres unmarked) [Example 49, [3-[4-(4-Butyl-piperazin-1-ylmethyl)-phenyl]-3-(4-trifluoromethylphenoxy)-propyl]-dimethyl-amine] was tested, and the pKi [1] was 7.32 and the pKi [3] was 7.14.
Work on `CN(C)CCC(Oc1ccc(C#CCCN2CCSCC2)cc1)c1ccc(Cl)cc1` (centres unmarked) [Example 58, {3-(4-Chloro-phenyl)-3-[4-(4-thiomorpholin-4-yl-but-1-ynyl)phenoxy]-propyl}-dimethyl-amine] yielded a pKi [1] of 6.82 and a pKi [3] of 7.54.
`CN(C)CCC(Oc1ccc(C#CCCN2CCOCC2)cc1)c1ccc(Cl)cc1` (centres unmarked) [Example 59, {3-(4-Chloro-phenyl)-3-[4-(4-morpholin-4-yl-but-1-ynyl)-phenoxy]-propyl}-dimethyl-amine] showed a pKi [1] of 6.74 and a pKi [3] of 7.25.
For `CN(C)CCC(Oc1ccc(C#CCCN2CCOCC2)cc1)c1ccccc1` (centres unmarked) [Example 61, Dimethyl-{3-[4-(4-morpholin-4-yl-but-1-ynyl)-phenoxy]-3-phenyl-propyl}-amine], the pKi [1] was 6.97 and the pKi [3] was 6.99.
`CC(C)N1CCN(CCC#Cc2ccc(OC(CCN(C)C)c3ccc(C(F)(F)F)cc3)cc2)CC1` (centres unmarked) [Example 62, [3-{4-[4-(4-Isopropyl-piperazin-1-yl)-but-1-ynyl]-phenoxy}-3-(4-trifluoromethyl-phenyl)-propyl]-dimethyl-amine] showed a pKi [1] of 6.78 and a pKi [3] of 6.84.
Work on `CN(C)CCC(Oc1ccc(C#CCCN2CCSCC2)cc1)c1ccccc1` (centres unmarked) [Example 63, Dimethyl-{3-phenyl-3-[4-(4-thiomorpholin-4-yl-but-1-ynyl)phenoxy]-propyl}-amine] yielded a pKi [1] of 7.28 and a pKi [3] of 7.74.
With `CN(C)CCC(Oc1ccc(C#CCCN2CCOCC2)cc1)c1ccc(C(F)(F)F)cc1` (centres unmarked) [Example 64, Dimethyl-[3-[4-(4-morpholin-4-yl-but-1-ynyl)-phenoxy]-3-(4-trifluoromethyl-phenyl)-propyl]-amine] the pKi [1] was 6.47 and the pKi [3] was 5.40.
`CN(C)CCC(Oc1ccc(C#CCCN2CCSCC2)cc1)c1ccc(C(F)(F)F)cc1` (centres unmarked) [Example 76, Dimethyl-[3-[4-(4-thiomorpholin-4-yl-but-1-ynyl)-phenoxy]-3-(4-trifluoromethyl-phenyl)-propyl]-amine] gave a pKi [1] of 6.27 and a pKi [3] of 7.12.
Molecule `CN(C)CCC(Oc1ccc(C#CCCN2CCCCC2)cc1)c1ccc(F)cc1` (centres unmarked) [Example 77, {3-(4-Fluoro-phenyl)-3-[4-(4-piperidin-1-yl-but-1-ynyl)-phenoxy]-propyl}-dimethyl-amine] has a pKi [1] of 6.78 and a pKi [3] of 6.44.
For `CN(C)CCC(Oc1ccc(C(F)(F)F)cc1)c1ccc(C(=O)N2CCN(C3CCCCC3)CC2)cc1` (centres unmarked) [Example 78, (4-Cyclohexyl-piperazin-1-yl)-{4-[3-dimethylamino-1-(4-trifluoromethyl-phenoxy)-propyl]-phenyl}-methanone], the pKi [1] was 6.65 and the pKi [3] was 7.66.
